EC50 data for 14 compounds are collected here from US20250163066A1, “PROTACs of MALT1” (TEGID THERAPEUTICS, INC., priority 2022, published 2025).

The term EC50 denotes the concentration giving half of the maximal effect.

Some results are limits rather than exact numbers.

In the assay the target is MALT1 (Homo sapiens (Human), UniProt Q9UDY8). Description: MALT1 enzymatic activity inhibition (fluorescence, Ac-LRSR-AMC substrate). Type of assay: biochemical. To be noted: recombinant MALT1 1.5 ng/μl, Ac-LRSR-AMC 1 μM. Here is the method:
Compound activity was determined using recombinant MALT1 protein (Creative Biomart, Cat #MALT1-28H) and Ac-LRSR-AMC Substrate in an in vitro enzymatic reaction. The enzymatic assay used to determine activity was a Fluorescence assay using a Microplate Reader ClarioStar Plus. The enzymatic reaction was carried out in 1× Assay Buffer (50 mM HEPES pH 7.2-7.4, 100 mM NaCl, 900 mM Sodium citrate, 10 mM DTT). The compounds were dispensed on a 384-well Diamond Well Plate (Axygen, Cat #P-384-120SQ-C—S) using the Biomek FX liquid handling system at 100× solutions of compounds in DMSO. 2.5×MALT1 mix (final concentration 1.5 ng/μl of MALT1) was prepared in 1× Assay Buffer and 8 μl of mixture per well were added into 384w white Reaction Plates with NBS (Corning, Cat #4513). 8 μl of 1× Assay Buffer were used for negative control. Plates were centrifuged for 1 min at 200 g. Next, the compounds were added to Reaction plates using Biomek station via following steps: 1 μl of 100× compounds (in DMSO) was mixed thoroughly with 19 μl of 1× Assay Buffer, then 4 μl of this mixture were added to Reaction plates with 8 μl of MALT1 mix. Plates were centrifuged for 1 min at 200 g and incubated for 10 minutes at rt. Next, 2.5× Ac-LRSR-AMC mix (final concentration 1 μM of Ac-LRSR-AMC) was prepared in 1× Assay Buffer and 8 μl of mixture per well were added to Reaction Plates using Biomek station. Plates were centrifuged for 1 min at 200 g, then the fluorescence was measured immediately using Microplate Reader. Plates were incubated for 30 minutes at 37° C., then for 30 minutes at rt. The fluorescence was measured after the whole incubation using Microplate Reader. The reaction signal was calculated as the subtraction of the first data set values from the second. The % inhibition was then used to calculate the IC50 values. The results of this assay are shown in the Table A. The values of EC50 shown as a letters A-E, where: A≤0.2 μM; 0.2 μM<B≤0.5 μM; 0.5 μM<C≤1 μM; 1<D≤5 μM; E >5.

Chain of MALT1 (Q9UDY8 whole entry): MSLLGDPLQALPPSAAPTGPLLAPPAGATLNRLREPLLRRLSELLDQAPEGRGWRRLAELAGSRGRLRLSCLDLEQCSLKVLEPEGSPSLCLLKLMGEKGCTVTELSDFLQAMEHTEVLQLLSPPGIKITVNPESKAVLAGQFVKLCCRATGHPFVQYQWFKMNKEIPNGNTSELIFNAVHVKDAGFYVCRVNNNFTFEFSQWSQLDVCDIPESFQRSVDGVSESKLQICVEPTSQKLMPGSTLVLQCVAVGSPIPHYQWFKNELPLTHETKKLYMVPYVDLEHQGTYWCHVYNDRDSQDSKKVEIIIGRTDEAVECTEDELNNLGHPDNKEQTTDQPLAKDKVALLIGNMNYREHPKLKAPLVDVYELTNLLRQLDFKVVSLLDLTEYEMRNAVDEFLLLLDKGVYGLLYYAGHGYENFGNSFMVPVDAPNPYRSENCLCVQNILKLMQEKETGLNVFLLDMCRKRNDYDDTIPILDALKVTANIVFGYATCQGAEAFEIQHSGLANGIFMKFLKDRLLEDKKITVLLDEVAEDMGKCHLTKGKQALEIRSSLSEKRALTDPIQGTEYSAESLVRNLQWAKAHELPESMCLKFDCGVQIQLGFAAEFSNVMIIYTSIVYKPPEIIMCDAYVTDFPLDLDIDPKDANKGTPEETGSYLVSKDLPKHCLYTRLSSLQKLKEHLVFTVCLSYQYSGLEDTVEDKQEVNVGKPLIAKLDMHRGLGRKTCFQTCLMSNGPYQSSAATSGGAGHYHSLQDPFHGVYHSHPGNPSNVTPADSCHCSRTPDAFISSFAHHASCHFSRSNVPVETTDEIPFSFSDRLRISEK

Take `O=C(CCOCCOCCN1CCN(c2ccc3c(c2)CN(C2CCC(=O)NC2=O)C3=O)CC1)NCCOc1ncc(Cl)cc1NC(=O)Nc1cnc2ccnn2c1C1CCCO1` (centres unmarked) [Compound 32, N-[2-[[5-chloro-3-[(7-tetrahydrofuran-2-ylpyrazolo[1,5-a]pyrimidin-6-yl)carbamoylamino]-2-pyridyl]oxy]ethyl]-3-[2-[2-[4-[2-(2,6-dioxo-3-piperidyl)-1-oxo-isoindolin-5-yl]piperazin-1-yl]ethoxy]ethoxy]propanamide]: the EC50 lay within 1 to 5 µM.

As for `O=C(CCOCCOCCN1CCN(c2ccc3c(c2)CN(C2CCC(=O)NC2=O)C3=O)CC1)NCCOc1ccc(Cl)cc1NC(=O)Nc1cnc2ccnn2c1C1CCCC1` (centres unmarked) [Compound 49, N-[2-[4-chloro-2-[(7-cyclopentylpyrazolo[1,5-a]pyrimidin-6-yl)carbamoylamino]phenoxy]ethyl]-3-[2-[2-[4-[2-(2,6-dioxo-3-piperidyl)-1-oxo-isoindolin-5-yl]piperazin-1-yl]ethoxy]ethoxy]propanamide], the EC50 fell in the range of 1 to 5 µM.

With `O=C1CCC(N2Cc3cc(NC(=O)CCCc4nc(-c5ncc(NC(=O)Nc6cnc7ccnn7c6C6CCCC6)cc5Cl)no4)ccc3C2=O)C(=O)N1` (centres unmarked) [Compound 80, 4-[3-[3-chloro-5-[(7-cyclopentylpyrazolo[1,5-a]pyrimidin-6-yl)carbamoylamino]-2-pyridyl]-1,2,4-oxadiazol-5-yl]-N-[2-(2,6-dioxo-3-piperidyl)-1-oxo-isoindolin-5-yl]butanamide], the EC50 was at most 0.2 µM.

On to `Cc1cc(NC(=O)Nc2cnc3ccnn3c2C(C)(C)C)cnc1-c1noc(CCCCCN2CCN(c3ccc4c(c3)CN(C3CCC(=O)NC3=O)C4=O)CC2)n1` (centres unmarked) [Compound 150, 1-(7-tert-butylpyrazolo[1,5-a]pyrimidin-6-yl)-3-[6-[5-[5-[4-[2-(2,6-dioxo-3-piperidyl)-1-oxo-isoindolin-5-yl]piperazin-1-yl]pentyl]-1,2,4-oxadiazol-3-yl]-5-methyl-3-pyridyl]urea], for which the EC50 is 1 to 5 µM.

As for `CC(C)(C)C(=O)OCN1C(=O)CCC(N2Cc3cc(N4CCN(C(=O)CCCCc5nc(-c6ncc(NC(=O)Nc7cnc8ccnn8c7C7CCCC7)cc6Cl)no5)CC4)ccc3C2=O)C1=O` (centres unmarked) [Compound 134, [3-[5-[4-[5-[3-[3-chloro-5-[(7-cyclopentylpyrazolo[1,5-a]pyrimidin-6-yl)carbamoylamino]-2-pyridyl]-1,2,4-oxadiazol-5-yl]pentanoyl]piperazin-1-yl]-1-oxo-isoindolin-2-yl]-2,6-dioxo-1-piperidyl]methyl 2,2-dimethylpropanoate], the EC50 was at most 0.2 µM.

Take `Cc1cc(NC(=O)Nc2cnc3ccnn3c2C(C)C)cnc1-c1noc(CCCCCC(=O)N2CCN(c3ccc4c(c3)CN(C3CCC(=O)N(COC(=O)C(C)(C)C)C3=O)C4=O)CC2)n1` (centres unmarked) [Compound 131, [3-[5-[4-[6-[3-[5-[(7-isopropylpyrazolo[1,5-a]pyrimidin-6-yl)carbamoylamino]-3-methyl-2-pyridyl]-1,2,4-oxadiazol-5-yl]hexanoyl]piperazin-1-yl]-1-oxo-isoindolin-2-yl]-2,6-dioxo-1-piperidyl]methyl 2,2-dimethylpropanoate]: the EC50 is at most 0.2 µM.

Consider `Cc1cc(NC(=O)Nc2cnc3ccnn3c2C2CCCO2)cnc1NCCOCCOCCOCCC(=O)N1CCN(c2ccc3c(c2)CN(C2CCC(=O)NC2=O)C3=O)CC1` (centres unmarked) [Compound 29, 1-[6-[2-[2-[2-[3-[4-[2-(2,6-dioxo-3-piperidyl)-1-oxo-isoindolin-5-yl]piperazin-1-yl]-3-oxo-propoxy]ethoxy]ethoxy]ethylamino]-5-methyl-3-pyridyl]-3-(7-tetrahydrofuran-2-ylpyrazolo[1,5-a]pyrimidin-6-yl)urea], for which the EC50 is above 5 µM.

On to `O=C(CCOCCN1CCN(c2ccc3c(c2)CN(C2CCC(=O)NC2=O)C3=O)CC1)NCCOc1ncc(Cl)cc1NC(=O)Nc1cnc2ccnn2c1C1CCOCC1` (centres unmarked) [Compound 42, N-[2-[[5-chloro-3-[(7-tetrahydropyran-4-ylpyrazolo[1,5-a]pyrimidin-6-yl)carbamoylamino]-2-pyridyl]oxy]ethyl]-3-[2-[4-[2-(2,6-dioxo-3-piperidyl)-1-oxo-isoindolin-5-yl]piperazin-1-yl]ethoxy]propanamide], for which the EC50 lay within 0.5 to 1 µM.

In the case of `Cc1cc(NC(=O)Nc2cnc3ccnn3c2C2CCCC2)cnc1-c1cn(CCCCOCC(=O)N2CCN(c3ccc4c(c3)CN(C3CCC(=O)NC3=O)C4=O)CC2)nn1` (centres unmarked) [Compound 8, 1-(7-cyclopentylpyrazolo[1,5-a]pyrimidin-6-yl)-3-[6-[1-[4-[2-[4-[2-(2,6-dioxo-3-piperidyl)-1-oxo-isoindolin-5-yl]piperazin-1-yl]-2-oxo-ethoxy]butyl]triazol-4-yl]-5-methyl-3-pyridyl]urea], the EC50 was 1 to 5 µM.

On to `O=C1CCC(N2Cc3cc(N4CCN(CCCCc5nc(-c6ncc(NC(=O)Nc7cnc8ccnn8c7C7CC7)cc6Cl)no5)CC4)ccc3C2=O)C(=O)N1` (centres unmarked) [Compound 166, 1-[5-chloro-6-[5-[4-[4-[2-(2,6-dioxo-3-piperidyl)-1-oxo-isoindolin-5-yl]piperazin-1-yl]butyl]-1,2,4-oxadiazol-3-yl]-3-pyridyl]-3-(7-cyclopropylpyrazolo[1,5-a]pyrimidin-6-yl)urea], for which the EC50 is at most 0.2 µM.

For `O=C(CCOCCOCCN1CCN(c2ccc3c(c2)CN(C2CCC(=O)NC2=O)C3=O)CC1)NCCOc1ncc(Cl)cc1NC(=O)Nc1cnc2ccnn2c1C1CCOC1` (centres unmarked) [Compound 40, N-[2-[[5-chloro-3-[(7-tetrahydrofuran-3-ylpyrazolo[1,5-a]pyrimidin-6-yl)carbamoylamino]-2-pyridyl]oxy]ethyl]-3-[2-[2-[4-[2-(2,6-dioxo-3-piperidyl)-1-oxo-isoindolin-5-yl]piperazin-1-yl]ethoxy]ethoxy]propanamide], the 50% effective concentration (EC50) fell in the range of 0.5 to 1 µM.

Regarding `O=C1CCC(N2Cc3cc(N4CCN(C(=O)CCCCn5cc(NC(=O)Nc6cnc7ccnn7c6C6CCCO6)c(C(F)(F)F)n5)CC4)ccc3C2=O)C(=O)N1` (centres unmarked) [Compound 155, 1-[1-[5-[4-[2-(2,6-dioxo-3-piperidyl)-1-oxo-isoindolin-5-yl]piperazin-1-yl]-5-oxo-pentyl]-3-(trifluoromethyl)pyrazol-4-yl]-3-(7-tetrahydrofuran-2-ylpyrazolo[1,5-a]pyrimidin-6-yl)urea], the EC50 was above 5 µM.

With `O=C1CCC(N2Cc3cc(N4CCN(CCCCCCc5nnc(-c6ccc(NC(=O)Nc7cnc8ccnn8c7C7CCCC7)cn6)s5)CC4)ccc3C2=O)C(=O)N1` (centres unmarked) [Compound 143, 1-(7-cyclopentylpyrazolo[1,5-a]pyrimidin-6-yl)-3-[6-[5-[6-[4-[2-(2,6-dioxo-3-piperidyl)-1-oxo-isoindolin-5-yl]piperazin-1-yl]hexyl]-1,3,4-thiadiazol-2-yl]-3-pyridyl]urea], the EC50 fell in the range of 1 to 5 µM.

For `CCCCOP(=O)(OCCCC)OCN1C(=O)CCC(N2Cc3cc(N4CCN(C(=O)CCCCCc5nc(-c6ncc(NC(=O)Nc7cnc8ccnn8c7C(C)C)cc6C)no5)CC4)ccc3C2=O)C1=O` (centres unmarked) [Compound 148, dibutyl [3-[5-[4-[6-[3-[5-[(7-isopropylpyrazolo[1,5-a]pyrimidin-6-yl)carbamoylamino]-3-methyl-2-pyridyl]-1,2,4-oxadiazol-5-yl]hexanoyl]piperazin-1-yl]-1-oxo-isoindolin-2-yl]-2,6-dioxo-1-piperidyl]methyl phosphate], the concentration giving a half-maximal response (EC50) was in the range of 0.5 to 1 µM.
